Measured values as given in ChEMBL document CHEMBL3882388, “Pharmaceutical Compositions Comprising Beta-Lactam Antibiotic, Sulbactam and Beta-Lactamase Inhibitor” (2014).

Tests used:
[1] = target: Beta-lactamase (Acinetobacter baumannii) (UniProt Q8RLA6); experiment: Inhibition of beta-lactamase in extended-spectrum b-lactamase producing Acinetobacter baumannii NCTC 13301 assessed as potentiation of cefepime-induced antibacterial activity by measuring cefepime MIC at 4 to 8 ug/ml incubated for 16 to 20 hrs by CLSI method
[2] = system: Acinetobacter baumannii; experiment: Antibacterial activity against extended-spectrum b-lactamase producing Acinetobacter baumannii NCTC 13304 incubated for 16 to 20 hrs by CLSI method; type: functional
[3] = system: Acinetobacter baumannii; experiment: Antibacterial activity against extended-spectrum b-lactamase producing Acinetobacter baumannii NCTC 13305 incubated for 16 to 20 hrs by CLSI method; type: functional
[4] = target: Beta-lactamase (Acinetobacter baumannii) (UniProt Q8RLA6); experiment: Inhibition of beta-lactamase in extended-spectrum b-lactamase producing Acinetobacter baumannii S-3 assessed as potentiation of cefepime-induced antibacterial activity by measuring cefepime MIC at 4 to 8 ug/ml incubated for 16 to 20 hrs by CLSI method
[5] = system: Acinetobacter baumannii; experiment: Antibacterial activity against extended-spectrum b-lactamase producing Acinetobacter baumannii S-10 incubated for 16 to 20 hrs by CLSI method; type: functional
[6] = system: Acinetobacter baumannii; experiment: Antibacterial activity against extended-spectrum b-lactamase producing Acinetobacter baumannii S-15 incubated for 16 to 20 hrs by CLSI method; type: functional
[7] = target: Beta-lactamase (Acinetobacter baumannii) (UniProt Q8RLA6); experiment: Inhibition of beta-lactamase in extended-spectrum b-lactamase producing Acinetobacter baumannii NCTC 13301 assessed as potentiation of cefpirome-induced antibacterial activity by measuring cefpirome MIC at 4 to 8 ug/ml incubated for 16 to 20 hrs by CLSI method
[8] = target: Beta-lactamase (Acinetobacter baumannii) (UniProt Q8RLA6); experiment: Inhibition of beta-lactamase in extended-spectrum b-lactamase producing Acinetobacter baumannii S-3 assessed as potentiation of cefpirome-induced antibacterial activity by measuring cefpirome MIC at 4 to 8 ug/ml incubated for 16 to 20 hrs by CLSI method
[9] = target: Beta-lactamase (Acinetobacter baumannii) (UniProt Q8RLA6); conditions: NCTC 13301
[10] = target: Beta-lactamase (Acinetobacter baumannii) (UniProt Q8RLA6); conditions: NCTC 13301; remark: listed apart in the source
[11] = target: Beta-lactamase (Acinetobacter baumannii) (UniProt Q8RLA6); conditions: NCTC 13304
[12] = target: Beta-lactamase (Acinetobacter baumannii) (UniProt Q8RLA6); conditions: NCTC 13304; remark: listed apart in the source
[13] = target: Beta-lactamase (Acinetobacter baumannii) (UniProt Q8RLA6); conditions: NCTC 13304; remark: listed apart in the source
[14] = target: Beta-lactamase (Acinetobacter baumannii) (UniProt Q8RLA6); conditions: NCTC 13305
[15] = target: Beta-lactamase (Acinetobacter baumannii) (UniProt Q8RLA6); conditions: NCTC 13305; remark: listed apart in the source
[16] = target: Beta-lactamase (Acinetobacter baumannii) (UniProt Q8RLA6); conditions: NCTC 13305; remark: listed apart in the source
[17] = target: Beta-lactamase (Acinetobacter baumannii) (UniProt Q8RLA6); conditions: NCTC 13305; remark: listed apart in the source
[18] = target: Beta-lactamase (Acinetobacter baumannii) (UniProt Q8RLA6); conditions: S-3
[19] = target: Beta-lactamase (Acinetobacter baumannii) (UniProt Q8RLA6); conditions: S-3; remark: listed apart in the source
[20] = target: Beta-lactamase (Acinetobacter baumannii) (UniProt Q8RLA6); conditions: S-3; remark: listed apart in the source
[21] = target: Beta-lactamase (Acinetobacter baumannii) (UniProt Q8RLA6); conditions: S-4
[22] = target: Beta-lactamase (Acinetobacter baumannii) (UniProt Q8RLA6); conditions: S-4; remark: listed apart in the source
[23] = target: Beta-lactamase (Acinetobacter baumannii) (UniProt Q8RLA6); conditions: S-8
[24] = target: Beta-lactamase (Acinetobacter baumannii) (UniProt Q8RLA6); conditions: S-8; remark: listed apart in the source
[25] = target: Beta-lactamase (Acinetobacter baumannii) (UniProt Q8RLA6); conditions: S-10
[26] = target: Beta-lactamase (Acinetobacter baumannii) (UniProt Q8RLA6); conditions: S-10; remark: listed apart in the source
[27] = target: Beta-lactamase (Acinetobacter baumannii) (UniProt Q8RLA6); conditions: S-15
[28] = target: Beta-lactamase (Acinetobacter baumannii) (UniProt Q8RLA6); conditions: S-15; remark: listed apart in the source
[29] = target: Beta-lactamase (Acinetobacter baumannii) (UniProt Q8RLA6); conditions: S-15; remark: listed apart in the source
[30] = target: Beta-lactamase (Acinetobacter baumannii) (UniProt Q8RLA6); conditions: NCTC 13301; remark: listed apart in the source
[31] = target: Beta-lactamase (Acinetobacter baumannii) (UniProt Q8RLA6); conditions: NCTC 13301; remark: listed apart in the source
[32] = target: Beta-lactamase (Acinetobacter baumannii) (UniProt Q8RLA6); conditions: NCTC 13304; remark: listed apart in the source
[33] = target: Beta-lactamase (Acinetobacter baumannii) (UniProt Q8RLA6); conditions: NCTC 13304; remark: listed apart in the source
[34] = target: Beta-lactamase (Acinetobacter baumannii) (UniProt Q8RLA6); conditions: NCTC 13304; remark: listed apart in the source
[35] = target: Beta-lactamase (Acinetobacter baumannii) (UniProt Q8RLA6); conditions: NCTC 13305; remark: listed apart in the source
[36] = target: Beta-lactamase (Acinetobacter baumannii) (UniProt Q8RLA6); conditions: NCTC 13305; remark: listed apart in the source
[37] = target: Beta-lactamase (Acinetobacter baumannii) (UniProt Q8RLA6); conditions: S-3; remark: listed apart in the source
[38] = target: Beta-lactamase (Acinetobacter baumannii) (UniProt Q8RLA6); conditions: S-3; remark: listed apart in the source
[39] = target: Beta-lactamase (Acinetobacter baumannii) (UniProt Q8RLA6); conditions: S-4; remark: listed apart in the source
[40] = target: Beta-lactamase (Acinetobacter baumannii) (UniProt Q8RLA6); conditions: S-4; remark: listed apart in the source
[41] = target: Beta-lactamase (Acinetobacter baumannii) (UniProt Q8RLA6); conditions: S-8; remark: listed apart in the source
[42] = target: Beta-lactamase (Acinetobacter baumannii) (UniProt Q8RLA6); conditions: S-10; remark: listed apart in the source
[43] = target: Beta-lactamase (Acinetobacter baumannii) (UniProt Q8RLA6); conditions: S-10; remark: listed apart in the source
[44] = target: Beta-lactamase (Acinetobacter baumannii) (UniProt Q8RLA6); conditions: S-10; remark: listed apart in the source
[45] = target: Beta-lactamase (Acinetobacter baumannii) (UniProt Q8RLA6); conditions: S-15; remark: listed apart in the source

Measured: MIC

Beta-lactamase (Acinetobacter baumannii), sequence (Q8RLA6 as listed by the source): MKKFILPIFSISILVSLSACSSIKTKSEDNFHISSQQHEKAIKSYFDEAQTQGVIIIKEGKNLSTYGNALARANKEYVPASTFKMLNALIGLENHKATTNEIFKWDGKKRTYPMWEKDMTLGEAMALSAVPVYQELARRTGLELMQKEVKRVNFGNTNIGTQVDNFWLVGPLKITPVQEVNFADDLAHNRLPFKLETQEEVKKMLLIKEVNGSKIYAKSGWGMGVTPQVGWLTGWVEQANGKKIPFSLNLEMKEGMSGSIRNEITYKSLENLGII

NC(=O)[C@@H]1CC[C@@H]2CN1C(=O)N2OS(=O)(=O)O
1 µg/mL: [19] | [38] | [40]
8 µg/mL: [23] | [27] | [41] | [42] | [45]
0.5 µg/mL: [20] | [22] | [24] | [29]
< 0.03 µg/mL: [25] | [26] | [43] | [44]
> 64 µg/mL: [2] | [3] | [5] | [6]
32 µg/mL: [4] | [8]
> 32 µg/mL: [1] | [7]
4 µg/mL: [18] | [21] | [37] | [39]
0.12 µg/mL: [28]
< 0.06 µg/mL: all other assays above
